Measured values reported in PMC2323111, “Intervening with Urinary Tract Infections Using Anti-Adhesives Based on the Crystal Structure of the FimH–Oligomannose-3 Complex” (PLoS ONE, 2008).
Like-named read-outs stand apart in the source and are kept apart here.

Experiments:
FimH [1] = biological target: T1, FimH (Escherichia coli, UniProt P08191); test: SPR, competition in solution with immobilized Fab 1C10; format: binding
Target sequence in this assay (P08191 22-179): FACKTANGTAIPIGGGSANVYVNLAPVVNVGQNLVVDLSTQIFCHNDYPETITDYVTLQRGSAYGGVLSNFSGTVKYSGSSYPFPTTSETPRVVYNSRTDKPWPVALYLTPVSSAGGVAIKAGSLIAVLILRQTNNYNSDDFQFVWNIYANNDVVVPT

FimH [2] = biological target: T1, FimH; test: inhibition of FimH-dependent bacterial adhesion to […] bladder cells, fimH-negative control; format: cell-based; design: J96 FimH expressed from plasmid pMMB66 on type 1 pili of AAEC185(pUT2002) E. coli
Target sequence in this assay (P08191 22-300): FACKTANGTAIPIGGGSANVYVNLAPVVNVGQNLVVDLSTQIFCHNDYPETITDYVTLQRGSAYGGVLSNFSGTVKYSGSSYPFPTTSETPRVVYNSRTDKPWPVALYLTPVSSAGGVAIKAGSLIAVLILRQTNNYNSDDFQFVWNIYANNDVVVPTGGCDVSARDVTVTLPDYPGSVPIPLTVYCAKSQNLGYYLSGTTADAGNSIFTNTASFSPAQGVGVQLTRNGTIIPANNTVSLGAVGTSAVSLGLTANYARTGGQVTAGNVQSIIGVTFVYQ

FimH [3] = biological target: T1, FimH; test: co-crystal structure, […] Å; format: binding
Target sequence in this assay (P08191 22-179): as the sequence (P08191 22-179) above

OC[C@H]1O[C@H](O[C@H]2[C@H](O)[C@@H](CO)OC(O)[C@H]2O)[C@@H](O)[C@@H](O)[C@@H]1O (mixture of isomers) [Manα1,3Man]
Kd (FimH [1]): 281 nM

CCCCCCCO[C@H]1O[C@H](CO)[C@@H](O)[C@H](O)[C@@H]1O [HM, heptyl α-D-mannose]
inhibition of FimH-dependent bacterial adhesion to 5637 bladder cells, fimH-nega (FimH [2]): HM is more efficient at reducing FimH-mediated bacterial adherence, in accordance with its higher affinity for FimH

CO[C@@H]1O[C@H](CO)[C@@H](O)[C@H](O[C@H]2O[C@H](CO)[C@@H](O)[C@H](O)[C@@H]2O)[C@@H]1O [Manα1,3ManβOMe]
Kd (FimH [1]; read-out: Kd): 112 nM

CC(=O)N[C@H]1[C@H](O[C@H]2[C@H](O)[C@@H](NC(C)=O)C(O)O[C@@H]2CO)O[C@H](CO)[C@@H](O[C@@H]2O[C@H](CO[C@H]3O[C@H](CO)[C@@H](O)[C@H](O)[C@@H]3O)[C@@H](O)[C@H](O[C@H]3O[C@H](CO)[C@@H](O)[C@H](O)[C@@H]3O)[C@@H]2O)[C@@H]1O (stereo partly shown) [oligomannose-3]
co-crystal structure, 2.1 Å (FimH [3]): Oligomannose-3 has been crystallized in complex with the FimH RBD.
